Results from patent publication US20230203060A1 (GENFLEET THERAPEUTICS (SHANGHAI) INC., priority 2020, published 2023).

Each compound was assayed on KRAS G12C mutant NCI-H358 cells (assay: Cell proliferation inhibition experiment, 3D spheroid, CellTiter-Glo, NCI-H358). Conditions: Homo sapiens, NCI-H358, 120 h, NCI-H358 (KRAS G12C mutant) 3D spheroid, 5 days with compound, CellTiter-Glo; read-out: H358 IC50.
Type: cell-based, human
Summary of the method: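 Luminescence (CellTiter-Glo, 30 min incubation) was read after 5 days of compound treatment of overnight-formed spheroids of 800 H358 or 400 A549 cells in 2% FBS medium. Inhibition relative to DMSO and blank controls was fitted with a four-parameter model to yield IC50.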

Compound | IC50
C=CC(=O)N1CCN2C(=O)c3c(NC(C)(C)C)nc(-c4ccccc4F)c(Cl)c3OC[C@H]2C1 [Z457, (R)-8-acryloyl-1-(tert-butylamino)-4-chloro-3-(2-fluorophenyl)-6,6a,7,8,9,10-hexahydro-12H-pyrazino[2,1-c]pyrido[3,4-f][1,4]oxazepin-12-one] | 62.7 nM
C=CC(=O)N1CCN2C(=O)c3c(N4CCC[C@@H]4C)nc(-c4c(O)cccc4F)c(Cl)c3OC[C@H]2C1 [Z49, (6aR)-8-acryloyl-1-((S)-2-methylpyrrolidin-1-yl)-4-chloro-3-(2-fluoro-6-hydroxyphenyl)-6,6a,7,8,9,10-hexahydro-12H-pyrazino[2,1-c]pyrido[3,4-f][1,4]oxazepin-12-one] | 4 nM
C=CC(=O)N1CCN2C(=O)c3c(N4C[C@@H](N(C)C)CC4(C)C)nc(-c4cccc(F)c4F)c(Cl)c3OC[C@H]2C1 [Z473-1, (R)-8-acryloyl-4-chloro-3-(2,3-difluorophenyl)-1-((S)-4-(dimethylamino)-2,2-dimethylpyrrolidin-1-yl)-6,6a,7,8,9,10-hexahydro-12H-pyrazino[2,1-c]pyrido[3,4-f][1,4]oxazepin-12-one] | 22 nM
C=CC(=O)N1CCN2C(=O)c3c(N4C[C@@H](N(C)CC(F)(F)F)CC4(C)C)nc(-c4ccccc4F)c(Cl)c3OC[C@H]2C1 (single isomer, unassigned) [Z491] | 1.4 nM
C=CC(=O)N1CCN2C(=O)c3c(OC4CCCN(C)C4)nc(-c4c(O)cccc4F)c(Cl)c3OC[C@H]2C1 (stereo partly drawn) [Z43, (6aR)-8-acryloyl-4-chloro-3-(2-fluoro-6-hydroxyphenyl)-1-((1-methylpiperidin-3-yl)oxy)-6,6a,7,8,9,10-hexahydro-12H-pyrazino[2,1-c]pyrido[3,4-f][1,4]oxazepin-12-one] | 39 nM
C=CC(=O)N1CCN2C(=O)c3c(N4C[C@@H](N(C)C)CC4(C)C)nc(-c4c(F)ccc(F)c4O)c(Cl)c3OC[C@H]2C1 [Z475-1, (6aR)-8-acryloyl-4-chloro-3-(3,6-difluoro-2-hydroxyphenyl)-1-((S)-4-(dimethylamino)-2,2-dimethylpyrrolidin-1-yl)-6,6a,7,8,9,10-hexahydro-12H-pyrazino[2,1-c]pyrido[3,4-f][1,4]oxazepin-12-one] | 2 nM
C=CC(=O)N1CCN2C(=O)c3c(N4CCN(C)C[C@@H]4C)nc(-c4ccccc4Cl)c(Cl)c3OC[C@H]2C1 [Z461, (R)-8-acryloyl-4-chloro-3-(2-chlorophenyl)-1-((S)-2,4-dimethylpiperazin-1-yl)-6,6a,7,8,9,10-hexahydro-12H-pyrazino[2,1-c]pyrido[3,4-f][1,4]oxazepin-12-one] | 24 nM
C=CC(=O)N1CCN2C(=O)c3c(N4CC(O)CC4(C)C)nc(-c4c(O)cccc4F)c(Cl)c3OC[C@H]2C1 (stereo partly drawn) [Z50, (6aR)-8-amyloyl-4-chloro-3-(2-fluoro-6-hydroxyphenyl)-1-(4-hydroxy-2,2-dimethylpyrrolidin-1-yl)-6,6a,7,8,9,10-hexahydro-12H-pyrazino[2,1-c]pyrido[3,4-f][1,4]oxazepin-12-one] | 2 nM
C=CC(=O)N1CCN2C(=O)c3c(N4CCN(C(=O)CC)C[C@@H]4C)nc(-c4ccccc4F)c(Cl)c3OC[C@H]2C1 [Z477, (R)-8-acryloyl-4-chloro-3-(2-fluorophenyl)-1-((S)-2-methyl-4-propionylpiperazin-1-yl)-6,6a,7,8,9,10-hexahydro-12H-pyrazino[2,1-c]pyrido[3,4-f][1,4]oxazepin-12(6aH)-one] | 8.1 nM
C=CC(=O)N1CCN2C(=O)c3c(N4C[C@@H](C(=O)O)CC4(C)C)nc(-c4c(O)cccc4F)c(Cl)c3OC[C@H]2C1 (single isomer, unassigned) [Z458-1] | 189 nM
C=CC(=O)N1CCN2C(=O)c3c(N4CCOC(C)(C)C4)nc(-c4c(O)cccc4F)c(Cl)c3OC[C@H]2C1 [Z37, (6aR)-8-acryloyl-4-chloro-1-(2,2-dimethylmorpholino)-3-(2-fluoro-6-hydroxyphenyl)-6,6a,7,8,9,10-hexahydro-12H-pyrazino[2,1-c]pyrido[3,4-f][1,4]oxazepin-12-one] | 9 nM
C=CC(=O)N1CCN2C(=O)c3c(N4CCN(C)C[C@@H]4C)nc(-c4c(F)cccc4C(F)F)c(Cl)c3OC[C@H]2C1 [Z456, (6aR)-8-acryloyl-4-chloro-3-(2-(difluoromethyl)-6-fluorophenyl)-1-((S)-2,4-dimethylpiperazin-1-yl)-6,6a,7,8,9,10-hexahydro-12H-pyrazino[2,1-c]pyrido[3,4-f][1,4]oxazepin-12-one] | 9.4 nM
C=CC(=O)N1CCN2C(=O)c3c(N4C[C@@H](N(C)C)CC4(C)C)nc(-c4ccccc4)c(Cl)c3OC[C@H]2C1 (single isomer, unassigned) [Z655-1] | 38 nM
C=CC(=O)N1CCN2C(=O)c3c(NC45CC(C4)C5)nc(-c4c(O)cccc4F)c(Cl)c3OC[C@H]2C1 [Z41, (6aR)-8-acryloyl-1-(bicyclo [1.1.1]pentan-1-ylamino)-4-chloro-3-(2-fluoro-6-hydroxyphenyl)-6,6a,7,8,9,10-hexahydro-12H-pyrazino[2,1-c]pyrido[3,4-f][1,4]oxazepin-12-one] | 22 nM
C=CC(=O)N1CCN2C(=O)c3c(N4CCN(C)C[C@@H]4C)nc(-c4c(F)cccc4OC)c(F)c3OC[C@H]2C1 [Z451, (6aR)-8-acryloyl-1-((S)-2,4-dimethylpiperazin-1-yl)-4-fluoro-3-(2-fluoro-6-methoxyphenyl)-6,6 a,7,8,9,10-hexahydro-12H-pyrazino[2,1-c]pyrido[3,4-f][1,4]oxazepin-12 (6 aH)-one] | 158 nM

Other lines, results leading:

IC50 | Compound
5.7 nM | C=CC(=O)N1CCN2C(=O)c3c(N4C[C@@H](N5CC(OC)C5)CC4(C)C)nc(-c4ccccc4F)c(Cl)c3OC[C@H]2C1 [Z479-1, (R)-8-acryloyl-4-chloro-3-(2-fluorophenyl)-1-((S)-4-(3-methoxyazetidin-1-yl)-2,2-dimethylpyrrolidin-1-yl)-6,6a,7,8,9,10-hexahydro-12H-pyrazino[2,1-c]pyrido[3,4-f][1,4]oxazepin-12-one]
1.7 nM | C=CC(=O)N1CCN2C(=O)c3c(N4C[C@@H](N(C)CCF)CC4(C)C)nc(-c4ccccc4F)c(Cl)c3OC[C@H]2C1 (single isomer, unassigned) [Z660-1]
2.6 nM | C=CC(=O)N1CCN2C(=O)c3c(N4CC(N(C)CCO)CC4(C)C)nc(-c4ccccc4F)c(Cl)c3OC[C@H]2C1 (stereo partly drawn) [Z658, (6aR)-8-acryloyl-4-chloro-3-(2-fluorophenyl)-1-(4-((2-hydroxyethyl)(methyl)amino)-2,2-dimethylpyrrolidin-1-yl)-6,6a,7,8,9,10-hexahydro-12H-pyrazino[2,1-c]pyrido[3,4-f][1,4]oxazepin-12-one]
7.2 nM | C=CC(=O)N1CCN2C(=O)c3c(N4C[C@H](N5CCN(C)CC5)CC4(C)C)nc(-c4ccccc4F)c(Cl)c3OC[C@H]2C1 (single isomer, unassigned) [Z454-2]
0.8 nM | C=CC(=O)N1CCN2C(=O)c3c(N4CC(N5CCN(C)CC5)CC4(C)C)nc(-c4c(O)cccc4F)c(Cl)c3OC[C@H]2C1 (stereo partly drawn) [Z467, (6aR)-8-acryloyl-4-chloro-1-(2,2-dimethyl-4-(4-methylpiperazin-1-yl)pyrrolidin-1-yl)-3-(2-fluoro-6-hydroxyphenyl)-6,6a,7,8,9,10-hexahydro-12H-pyrazino[2,1-c]pyrido[3,4-f][1,4]oxazepin-12-one]
7 nM | C=CC(=O)N1CCN2C(=O)c3c(N4C[C@@H](N5CCC5)CC4(C)C)nc(-c4ccccc4F)c(Cl)c3OC[C@H]2C1 (single isomer, unassigned) [Z471-1]
281 nM | C=CC(=O)N1CCN2C(=O)c3c(N4C[C@H](N5CC(F)(F)C5)CC4(C)C)nc(-c4ccccc4F)c(Cl)c3OC[C@H]2C1 (single isomer, unassigned) [Z525-1]
21.7 nM | C=CC(=O)N1CCN2C(=O)c3c(N4C[C@@H](O)CC4(C)C)nc(-c4ccccc4F)c(F)c3OC[C@H]2C1 (single isomer, unassigned) [Z408-1]
9 nM | C=CC(=O)N1CCN2C(=O)c3c(N4CC(N5CCN(C)CC5)CC4(C)C)nc(-c4ccccc4F)c(F)c3OC[C@H]2C1 (stereo partly drawn) [Z474, (6aR)-8-acryloyl-1-(2,2-dimethyl-4-(4-methylpiperazin-1-yl)pyrrolidin-1-yl)-4-fluoro-3-(2-fluorophenyl)-6,6a,7,8,9,10-hexahydro-12H-pyrazino[2,1-c]pyrido[3,4-f][1,4]oxazepin-12-one]
0.5 nM | C=CC(=O)N1CCN2C(=O)c3c(N4C[C@@H](N5CCN(C)CC5)CC4(C)C)nc(-c4c(O)cccc4F)c(Cl)c3OC[C@H]2C1 (single isomer, unassigned) [Z469-1]
4 nM | C=CC(=O)N1CCN2C(=O)c3c(N4C[C@H](N(C)CCOC)CC4(C)C)nc(-c4ccccc4F)c(Cl)c3OC[C@H]2C1 (single isomer, unassigned) [Z406-1]
12 nM | C=CC(=O)N1CCN2C(=O)c3c(N4C[C@H](N(C)CCO)CC4(C)C)nc(-c4ccccc4F)c(Cl)c3OC[C@H]2C1 (single isomer, unassigned) [Z658-2]
125 nM | C=CC(=O)N1CCN2C(=O)c3c(N4C[C@H](N5CC(C#N)C5)CC4(C)C)nc(-c4ccccc4F)c(Cl)c3OC[C@H]2C1 (single isomer, unassigned) [Z637-1]
7.8 nM | C=CC(=O)N1CCN2C(=O)c3c(N4C[C@@H](N5CC(F)(F)C5)CC4(C)C)nc(-c4ccccc4F)c(Cl)c3OC[C@H]2C1 (single isomer, unassigned) [Z525-2]
27 nM | C=CC(=O)N1CCN2C(=O)c3c(N4C[C@H](N(C)CC(F)(F)F)CC4(C)C)nc(-c4ccccc4F)c(Cl)c3OC[C@H]2C1 (single isomer, unassigned) [Z493]
1 nM | C=CC(=O)N1CCN2C(=O)c3c(N4C[C@@H](N(C)CCO)CC4(C)C)nc(-c4ccccc4F)c(Cl)c3OC[C@H]2C1 (single isomer, unassigned) [Z658-1]
